The text below walks through data of article PMC8059561, “Lowered sensitivity of bitter taste receptors to β-glucosides in bamboo lemurs: an instance of parallel and adaptive functional decline in TAS2R16?” (Proceedings of the Royal Society B: Biological Sciences, 2021).

By EC50 is commonly meant the concentration at which the effect is half-maximal.

The target of assay [1] is TAS2R16 from P. simus (Prolemur simus, UniProt A0A8C8ZSN9). The experiment in a line: Calcium assay, HEK293T cells expressing P. simus TAS2R16 with Gα16/gust44. Type of assay: cell-based.
Assay [2] relates to TAS2R16 from H. aureus. The assay can be described thus: Calcium assay, HEK293T cells expressing H. aureus TAS2R16 with Gα16/gust44. Type of assay: cell-based, Hapalemur aureus.
Assay [3] relates to TAS2R16 from H. griseus. The assay can be described thus: Calcium assay, HEK293T cells expressing H. griseus TAS2R16 with Gα16/gust44. The assay is classed as cell-based, Hapalemur griseus.
Assay [4] deals with TAS2R16 from L. catta (Lemur catta, UniProt A0A4Y1QJW7). The assay can be described thus: Calcium assay, HEK293T cells expressing L. catta TAS2R16 with Gα16/gust44. The assay is classed as cell-based. Particulars: Calcium 4, mean ± s.e.m.
Assay [5] concerns the target T1, TAS2R16 P. simus L144S (Prolemur simus, UniProt A0A8C8ZSN9, L144S).
T1 sequence (A0A8C8ZSN9 1-301 L144S): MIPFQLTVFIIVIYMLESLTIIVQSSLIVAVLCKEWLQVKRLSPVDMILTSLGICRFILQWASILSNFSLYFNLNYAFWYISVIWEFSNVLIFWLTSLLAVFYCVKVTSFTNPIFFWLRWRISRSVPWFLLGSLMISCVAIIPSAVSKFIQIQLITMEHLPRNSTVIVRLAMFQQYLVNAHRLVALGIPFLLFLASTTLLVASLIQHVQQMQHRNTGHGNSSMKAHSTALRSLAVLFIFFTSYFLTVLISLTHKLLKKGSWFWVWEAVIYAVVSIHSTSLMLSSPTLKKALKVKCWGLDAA
The experiment in a line: Calcium assay, single-point mutant P. simus L144S TAS2R16. The assay is classed as cell-based.

Assay [6] concerns anc-Bamboo lemur T140A /S144L TAS2R16. The experiment in a line: Calcium assay, double mutant anc-Bamboo lemur T140A/S144L (reply to referee). The assay is classed as cell-based, last common ancestor (LCA) in bamboo lemurs. Particulars: figure not shown.
Assay [7] relates to TAS2R16 orthologue of Varecia variegata. Set-up: method as in Itoigawa et al., [8]. Particulars: ref Itoigawa et al., [8]; cited from earlier work.
Where [8] appears, read: HEK293T, Gα16/gust44, Calcium 5, mean ± s.e.m.

Sequence of TAS2R16 from L. catta (A0A4Y1QJW7 1-301): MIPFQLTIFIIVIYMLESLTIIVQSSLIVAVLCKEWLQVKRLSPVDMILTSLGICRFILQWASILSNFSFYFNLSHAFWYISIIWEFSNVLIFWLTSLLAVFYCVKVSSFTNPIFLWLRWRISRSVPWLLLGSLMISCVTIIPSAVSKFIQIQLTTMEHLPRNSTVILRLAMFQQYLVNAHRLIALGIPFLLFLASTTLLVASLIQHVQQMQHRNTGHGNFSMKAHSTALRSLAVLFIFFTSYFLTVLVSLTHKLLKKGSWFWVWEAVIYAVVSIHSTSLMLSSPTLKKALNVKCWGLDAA
Sequence of TAS2R16 from P. simus (A0A8C8ZSN9 1-301): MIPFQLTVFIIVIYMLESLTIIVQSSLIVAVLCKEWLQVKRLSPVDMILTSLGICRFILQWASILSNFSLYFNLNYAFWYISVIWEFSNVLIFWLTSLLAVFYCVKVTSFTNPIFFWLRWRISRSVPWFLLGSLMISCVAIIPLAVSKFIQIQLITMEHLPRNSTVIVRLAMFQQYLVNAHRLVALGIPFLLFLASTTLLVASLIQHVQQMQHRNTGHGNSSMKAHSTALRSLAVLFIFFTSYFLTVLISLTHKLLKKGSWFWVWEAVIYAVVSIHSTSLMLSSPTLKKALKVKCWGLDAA

For `OC[C@H]1O[C@@H](Oc2ccc(O)cc2)[C@H](O)[C@@H](O)[C@@H]1O` [arbutin], the “response of TAS2R16 to ligand” value in assay [1] (at the concentrations used in the assays), in assay [2] and in assay [3] was “did not show any responses” in each case. In assay [4], the EC50 stood at 2.3 ± 0.21 mM.
Regarding `CC(C)(C#N)O[C@@H]1O[C@H](CO)[C@@H](O)[C@H](O)[C@H]1O` [linamarin], the “Amax (maximal signal amplitude, ΔF/F)” value in assay [2] (setting [8]) was 0.52 ± 0.041; in assay [3] (setting [8]), 0.33 ± 0.031.
With `OCc1ccccc1O[C@@H]1O[C@H](CO)[C@@H](O)[C@H](O)[C@H]1O` [salicin], the EC50 in assay [1] (HEK293T, Gα16/gust44, Calcium 4) was above 40 mM; in assay [2] (HEK293T, Gα16/gust44, Calcium 4, mean ± s.e.m.), 6.8 ± 1.1 mM; in assay [4], 2.1 ± 0.38 mM; in assay [5] it was 4.3 ± 0.85 mM; in assay [7], 3.8 mM. In assay [6], the “responses of double mutant compared to single mutant (anc-Bamboo lemur S144L)” value is recorded as “did not show significant reduction”.
